“And” between values parts separate entries of the source, which are not always exact repeats. Equal entries are not always repeated.
Legend:
[1] = test system: MMP-2 production and secretion by PC-3 ML cells; settings: in vitro and in vivo; cited from earlier work
[2] = test system: human PC-3 ML prostatic cancer subclones; settings: pretreatment of SCID mice; cited from earlier work
[3] = test system: human estrogen-independent breast cancer MDA-231 cells; settings: nontransfected MDA-231 cells, daily subcutaneous administration; cited from earlier work
[4] = test system: human myeloma cell lines (HMCL) LP-1, OPM-2 and JJN-3; experiment: Proliferation of HMCL, [3H]-thymidine incorporation (three cell lines together); format: cell-based; settings: for inhibition at 500 µM: Homo sapiens, 72 h, all the HMCL
Description: (§1) The human myeloma cell lines (HMCL) LP-1 and OPM-2 were obtained from DSM (Braunschweig, Germany). JJN-3 was kindly provided by B Van Campo (VUB, Belgium). Cells are maintained in RPMI 1640 culture medium supplemented with 10% fetal calf serum (FCS), 2mM glutamine, antibiotics (100 IU/ml penicillin and 100 μg/ml streptomycin) and 10 μM 2-β-mercaptoethanol.
(§2) The three HMCL are studied Le., LP-1, OPM-2 and JJN-3. Proliferation assays are performed in 96-well round-bottom microtiter plates at a cell density of 10^5 cells/mL. Cells are incubated for 3 days at 37° C. in a 5% CO2 humidified atmosphere with or without recombinant human IL-6 (rhIL-6) at 5 ng/ml, in the presence (or not) of the bisphosphonate of interest. Then, […] of […] is added during the last 18 hours. [^3H]-thymidine, incorporation is quantified by liquid scintillation spectroscopy.

[5] = test system: MMP-2 secretion by BMSC; experiment: Determination of gelatinase A (MMP-2) levels by gelatin substrate gel zymography; format: cell-based, human; settings: 48 h
Description: (§3) BMSC are obtained from 7 patients with MM after long term culture of bone marrow samples. Bone marrow mononuclear cells are isolated by Ficoll-Hypaque density centrifugation. The cells are plated in DMEM supplemented with 10% FCS and allowed to attach for 3 days, after which the medium is renewed. After 2 to 3 weeks of culture, a confluent adherent cell monolayer is obtained and then, after two passages using trypsin/ETA solution, BMSC are recovered for study. Cells are maintained in DMEM supplemented with 10% FCS, 2 mmol/L glutamine, 100 μg/mL streptomycin, 100 U/mL penicillin, and 5. 10^−5 mol/L 2-β-mercaptoethanol.
Adherent BMSC (10^4 cells) plated in 96-well plates are preincubated for 24 hours with either pamidronate or zoledronate. Then the medium is replaced by a fresh one without FCS but in the presence of different concentrations (10^−6, 10^−7, 10^−8, 10^−9 Mol/L) of each bisphosphonate. After a 48-hour incubation period, the supernatants are collected and stored at −20° C. until analysis. MMP-2 production is shown by gelatin substrate gel zymography. The supernatants are mixed with sodium dodecyl sulfate (SDS) sample buffer without reducing agent and then, proteins are separated by SDS-polyacrylamide gel electrophoresis in 7.5% polyacrylamide gels containing gelatin at 1 mg/ml, as previously described by Heussen and Dowdle(1980 Ann. Biochem. 102: 196-202) and adjusted for minigel format. After electrophoresis, SDS is removed from the gels by an incubation in 2.5% Triton X-100 for half an hour at room temperature. The gels are then incubated at 37° C. in a buffer containing 50 mM/L Tris-HCl 5 mM/L CaCl2, pH 7.6 for 24 hours. The gels were stained with Coomassie blue R250 (0.25%). […] The intensity of the gelatinolytic bands is analysed by densitometry. No interference between bisphosphonates and gelatin substrate gel zymography is observed using this assay (data not shown).

[6] = test system: constitutive production of IL-6 by BMSC; experiment: Determination of IL-6 concentrations by ELISA; format: cell-based, human; settings: 48 h
Description: as §3
Adherent BMSC (10^4 cells) plated in 96-well plates are preincubated for 24 hours with either pamidronate or zoledronate. The medium is replaced by a fresh one containing 2% FCS and different concentrations of each bisphosphonate: 10^−6, 10^−7, 10^−8, 10^−9, 10^−10, 10^−11 Mol/L of zoledronate and 10^−6, 10^−7, 10^−8, 10^−9, 10^−10 Mol/L of pamidronate respectively. After a 48-hour incubation period, the supernatants are collected and stored at −20° C. until analysis. L6 A production is measured by ELISA (ELISA test concentrations ranging from 10 to 500 pg/mL) (Innotest, Besancon, France). No interference between the bisphosphonates and ELISA is observed in this study (data not shown). Six of the seven BMSC are tested for production of IL-6 in the presence of bisphosphonates.

[7] = test system: BMSC; experiment: Survival experiments, BMSC apoptosis by APO 2.7 flow cytometry; format: cell-based, human; settings: 10^−4 mol/L, 3-day incubation
Description: as §3
Adherent BMSC (3×10^5 cells) are plated in 25 cm^2 flasks and are incubated with either pamidronate (APD) or zoledronate, at the following concentrations: 10^−4 and 10^−5 mol/L. A control without bisphosphonate is performed After a 3-day incubation period, cells are washed with PBS and removed from the flasks using trypsin-EDTA for 20 seconds. The percentage of apoptotic cells is determined by flow cytometry using APO 2.7 mAb (Immunotech, Marseilles, France) (ibid.).

[8] = test system: IL-1β-induced MMP-1 secretion by BMSC; experiment: Determination of interstitial collagenase (MMP-1) levels by ELISA; format: cell-based, human; settings: IL-1β (10 ng/ml) stimulated, 48 h, mean ± SD
Description: as §3
Adherent BMSC (15×10^3 cells) plated in 96-well plates are preincubated for 24 hours with either pamidronate or zoledronate. Then the cells are stimulated by IL-1β (10 ng/ml) in the presence of different concentrations (10^−6, 10^−7, 10^−8 and 10^−9 Mol/L) of each bisphosphonate without FCS. After a 48-hour incubation period, supernatants are collected and stored at −20° C. until analysis. MMP-1 levels are measured by ELISA (Amersham, Les Ulis, France). This assay measures MMP-1 irrespective of its mode of presentation (i.e. free or bound, active or not).

[9] = test system: JJN-3; experiment: Proliferation of HMCL, [3H]-thymidine incorporation; format: cell-based, human; settings: for concentration at which proliferation returns to the level of the control: JJN-3
Description: as §1, §2

[10] = test system: OPM-2; experiment: as above; format: cell-based, human; settings: for IC50: Homo sapiens, OPM-2, 72 h, 3 days
Description: as §1, §2

[11] = test system: LP-1; experiment: as above; format: cell-based, human; settings: for IC50: Homo sapiens, LP-1, 72 h, 3 days
Description: as §1, §2

[12] = test system: LP-1 cells; experiment: Analysis of cell cycle, propidium iodide flow cytometry; format: cell-based, human; settings: LP-1, 5×10^−4 Mol/L, 4 day incubation; control 36%
Description: LP-1 cells (2×10^5 cells) plated in a 24 well-plate are incubated in the presence of 5×10^−4 Mol/L of either pamidronate or zoledronate. A control without bisphosphonate is performed. Cells are recovered after a 4day incubation period and washed. They are then incubated for 40 minutes at 37° C. with a solution of Triton×100 0.1%, Sodium Citrate 0.1%, 5 IU of RNAse and stained with propidium iodide (PI) 50 mg/L: Flow cytometry analysis is performed on a FACSCalibur using a CELLQuest program (Becton Dickinson). Data are gated on the F12-Area venus FL2-Width cytogram to exclude doublets and agregates, and a minimum of 2.5×10^4 gated cells is collected per sample. Analysis of the cell cycle was performed using the Modfit LT for Mac V2.01 program (Verity Software House, Inc). Apoptotic cells were detected as a subdiploid peak as described by Zamai et al. (1993, Cytometry 14: 891-897)

SMILES | production and secretion of MMP-2 by PC-3 ML cells [1] | inhibition at 500 µM ([4]; 5×10^−4 Mol/L, 3 days) [%] | MMP-2 upregulation (72 kDa gelatinase activity, densitometry) ([5]; 10^−6 mol/L) | concentration at which IL-6 production returns to the basal level ([6]; BMSC) | APO 2.7 stained (apoptotic) BMSC [7] [%] | inhibition of MMP-1 secretion by BMSC [8] | concentration at which proliferation returns to the level of the control [9] [mol/L] | IC50 [10] [µM] | IC50 [11] [µM] | further results
NCCCC(O)(P(=O)(O)O)P(=O)(O)O [alendronate, 4-amino-1-hydroxybutane-1,1-diphosphonic acid] | independently reduced, in part |  |  |  |  |  |  |  |  | establishment of bone metastases [2]: partially blocked
CCCCCN(C)CCC(O)(P(=O)(O)O)P(=O)(O)O [ibandronate, 1-hydroxy-3-(methylpentylamino)-propylidene-bisphosphonic acid] |  |  |  |  |  |  |  |  |  | osteolytic lesions in bone (radiographs) [3]: markedly decreased
NCCC(O)(P(=O)(O)O)P(=O)(O)O [pamidronate, (3-amino-1-hydroxypropylidene) bis-phosphonate] |  | 75 | 165%±27% | 10^−11 mol/L | 97 | 21%±20% | 1e-05 | 293 | 207 | percentage of proliferation, of that of the control ([4]; 5×10^−4 Mol/L, the three cell lines, 3 days): 25%; concentration up to which dose-dependent inhibition of proliferation is observed ([4]; except for JJN-3): 5e-05 mol/L; inhibition of IL-6 production by BMSC ([6]; not proportional to dose, six BMSC samples, p=0.05): 40%±14%; IC50 ([9]; Homo sapiens, JJN-3, 72 h, 3 days): 107 µM
CC(=O)O[C@H]1C(=O)[C@@]2(C)[C@H]([C@H](OC(=O)c3ccccc3)[C@]3(O)C[C@H](OC(=O)[C@H](O)[C@@H](NC(=O)c4ccccc4)c4ccccc4)C(C)=C1C3(C)C)[C@]1(OC(C)=O)CO[C@@H]1C[C@@H]2O [taxol] | independently reduced, in part |  |  |  |  |  |  |  |  | 
O=P(O)(O)C(O)(Cn1ccnc1)P(=O)(O)O [zoledronate, (1-hydroxy-2-(1H-imidazole-1-yl)ethylidene) bisphosphonate] |  | ~95 | 180%±12% and 205%±7% | 10^−9 mol/L | 24 | 44%±14% | 1e-05 | 155 | 193 | percentage of cells in S phase [12]: 60%; MMP-2 upregulation (72 kDa gelatinase activity, densitometry) ([5]; 10^−9 mol/L): 159%±16%; inhibition at 1 µM ([6]; Homo sapiens, BMSC, 10^−6 mol/L, p=0.05, read-out: maximum inhibition of IL-6 production by BMSC): 60%; concentration at which normal proliferation rate is recovered ([10]; OPM-2): 5e-05 mol/L; concentration at which normal proliferation rate is recovered ([11]; LP-1): 5e-05 mol/L
